Measured values published in PubChem BioAssay (NCI).
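Method: 48-hour compound exposure of cells in 96-well plates, five concentrations, linear interpolation of endpoints. The concentration for 50% growth inhibition is given as GI50. The concentration for full growth arrest is given as TGI.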

What was measured:
Assay in all cases: inhibition of tumour cell growth, NCI panel, 48 h
[1] = tested on: DU-145 prostate
[2] = tested on: SNB-19 CNS
[3] = tested on: A549 NSCLC
[4] = tested on: UACC-257 melanoma
[5] = tested on: HT29 colon
[6] = tested on: KM12 colon
[7] = tested on: MALME-3M melanoma
[8] = tested on: OVCAR-3 ovarian
[9] = tested on: T-47D breast
[10] = tested on: HS 578T breast

## CCC[CH2][Sn]1([CH2]CCC)[O]C(=O)c2ccc(N)cc2[O]1
[1]
  GI50: 1.26 µM
  TGI: 2.52 µM
[2]
  GI50: 0.734 µM
  TGI: 2.17 µM
[3]
  GI50: 2.62 µM
  TGI: 7.4 µM
[4]
  GI50: 0.548 µM
  TGI: 2.11 µM
[5]
  GI50: 1.33 µM
  TGI: 2.73 µM
[6]
  GI50: 1.24 µM
  TGI: 2.59 µM
[7]
  GI50: 0.144 µM
  TGI: 1.18 µM
[8]
  GI50: 1.24 µM
  TGI: 2.52 µM

## CCCCCCCCCCCCCC(=O)NCC(OCC)OCC
[2]
  TGI: > 100 µM
[3]
  TGI: > 100 µM
[4]
  TGI: > 100 µM
[5]
  TGI: > 100 µM
[6]
  TGI: > 100 µM
[7]
  TGI: > 100 µM
[8]
  TGI: > 100 µM

## COc1ccc2ccccc2c1CN1CCOCCOCCN(Cc2c(OC)ccc3ccccc23)CCOCCOCC1
[2]
  TGI: > 100 µM
[3]
  TGI: > 100 µM
[4]
  TGI: 65.5 µM
[5]
  TGI: > 44 µM
[6]
  TGI: > 100 µM
[7]
  TGI: > 63.9 µM
[8]
  TGI: > 100 µM

## COC(=O)[C@H]1[C@H]2C[C@@H]3c4[nH]c5cc(OC)ccc5c4CCN3C[C@H]2C[C@@H](OC(=O)/C=C/c2cc(OC)c(OC)c(OC)c2)[C@@H]1OC
[1]
  GI50: 5.88 µM
  TGI: > 100 µM
[9]
  GI50: 3.15 µM
  TGI: 9.54 µM
[2]
  GI50: 6.46 µM
  TGI: > 100 µM
[3]
  GI50: 8.89 µM
  TGI: > 100 µM
[10]
  GI50: 5.77 µM
  TGI: 39.5 µM
[4]
  GI50: 18.4 µM
  TGI: 68.1 µM
[6]
  GI50: 4.44 µM
  TGI: 28.5 µM
[7]
  GI50: 18.7 µM
  TGI: 50.6 µM
[8]
  GI50: 2.62 µM
  TGI: 6.2 µM

## CCN(CC)CCOc1c(OC)c(Br)cc2c(C)c(C(=O)OC)oc12
[9]
  GI50: 0.188 µM
  TGI: 0.488 µM
[2]
  GI50: 2.31 µM
  TGI: 10.7 µM
[3]
  GI50: 10 µM
  TGI: 20.2 µM
[10]
  GI50: 1.44 µM
  TGI: 3.82 µM
[4]
  GI50: 1.53 µM
  TGI: 4.29 µM
[6]
  GI50: 0.569 µM
  TGI: 1.98 µM
[8]
  GI50: 0.982 µM
  TGI: 2.28 µM

## CC1=C(/C=C/C(C)=C/C=C/C(C)=C/C=C/C=C(C)/C=C/C=C(C)/C=C/C2=C(C)C(=O)C(O)CC2(C)C)C(C)(C)CC(O)C1=O (stereo unspecified)
[2]
  TGI: > 100 µM
[3]
  TGI: > 100 µM
[4]
  TGI: > 100 µM
[5]
  TGI: > 100 µM
[6]
  TGI: > 100 µM
[7]
  TGI: > 100 µM
[8]
  TGI: > 100 µM

## CC(=O)c1cccc(-c2cccc(-c3ccn(CCN4CCOCC4)n3)c2)c1
[1]
  GI50: > 20 µM
  TGI: > 20 µM
[9]
  GI50: 17.4 µM
  TGI: > 20 µM
[3]
  GI50: > 20 µM
  TGI: > 20 µM
[10]
  GI50: > 20 µM
  TGI: > 20 µM
[4]
  GI50: > 20 µM
  TGI: > 20 µM
[5]
  GI50: > 20 µM
  TGI: > 20 µM
[6]
  GI50: > 20 µM
  TGI: > 20 µM
[8]
  GI50: > 20 µM
  TGI: > 20 µM

## N#Cc1c(C[n+]2ccccc2)c2ccccc2oc1=O
[2]
  TGI: > 100 µM
[3]
  TGI: > 100 µM
[4]
  TGI: > 100 µM
[5]
  TGI: > 100 µM
[6]
  TGI: > 100 µM
[7]
  TGI: > 100 µM
[8]
  TGI: > 100 µM

## COc1cc2c3c(ncc2c(OC)c1OC)-c1cc2c(cc1C3)OCO2
[1]
  GI50: 26.9 µM
  TGI: > 100 µM
[9]
  GI50: 26.2 µM
  TGI: 89.8 µM
[2]
  GI50: 26.1 µM
  TGI: 55.6 µM
[3]
  GI50: 82.9 µM
  TGI: > 100 µM
[10]
  GI50: 13.3 µM
  TGI: 37.5 µM
[6]
  GI50: > 100 µM
  TGI: > 100 µM

## O=C(O)Cc1ccccc1CCc1ccccc1Cl
[2]
  TGI: > 100 µM
[3]
  TGI: > 100 µM
[4]
  TGI: > 100 µM
[5]
  TGI: > 100 µM
[6]
  TGI: > 100 µM
[7]
  TGI: > 100 µM
[8]
  TGI: > 100 µM

## CCOC(=O)C1=C(Nc2ccc(Cl)c(Cl)c2)OC/C1=N\NC(=O)Cc1ccccc1
[2]
  TGI: > 100 µM
[3]
  TGI: > 100 µM
[4]
  TGI: > 100 µM
[6]
  TGI: > 100 µM
[7]
  TGI: > 100 µM
[8]
  TGI: > 100 µM

## COC(=O)[C@]1(C)C(OC)=CC(=O)C2C1[C@H]1CCC[C@@H]21 (stereo partly specified)
[2]
  TGI: > 100 µM
[3]
  TGI: > 100 µM
[4]
  TGI: > 100 µM
[5]
  TGI: > 100 µM
[6]
  TGI: > 100 µM
[7]
  TGI: > 100 µM
[8]
  TGI: > 100 µM

## COC(=O)c1ccc(CN2C(=O)C(Cl)=C(Nc3ccc(OC)c(Cl)c3)C2=O)cc1
[1]
  GI50: 21.8 µM
  TGI: > 50 µM
[2]
  GI50: 5.93 µM
  TGI: 22.3 µM
[3]
  GI50: 26.2 µM
  TGI: > 50 µM
[10]
  GI50: 43 µM
  TGI: > 50 µM
[4]
  GI50: 19.4 µM
  TGI: > 50 µM
[6]
  GI50: 5.42 µM
  TGI: > 50 µM
[8]
  GI50: 21.6 µM
  TGI: > 50 µM

## COc1cc(/C=C/c2ccc(OC)c(OC)c2OC)cc(OC)c1OC
[2]
  TGI: 97.9 µM
[3]
  TGI: > 88.9 µM
[4]
  TGI: 52.8 µM
[5]
  TGI: > 63.9 µM
[6]
  TGI: 57.3 µM
[7]
  TGI: 48.7 µM
[8]
  TGI: 39.3 µM

## COc1cc(C2c3cc4c(cc3[C@@H](OCCN(C)C)C3COC(=O)[C@H]23)OCO4)cc(OC)c1O (stereo partly specified)
[2]
  TGI: > 22.3 µM
[4]
  TGI: 8.25 µM
[5]
  TGI: 2.43 µM
[6]
  TGI: 2.75 µM
[7]
  TGI: 1.87 µM
[8]
  TGI: 5.15 µM

## O=C1CCN2CCC(=O)c3c2c(cc2ccccc32)N1
[2]
  TGI: > 100 µM
[3]
  TGI: > 100 µM
[4]
  TGI: > 100 µM
[5]
  TGI: > 100 µM
[6]
  TGI: > 100 µM
[7]
  TGI: > 100 µM
[8]
  TGI: > 100 µM

## CCCCCCNC(=O)n1cc(F)c(=O)[nH]c1=O
[1]
  GI50: 5.38 µM
  TGI: > 100 µM
[9]
  GI50: 11.7 µM
  TGI: 47.5 µM
[2]
  GI50: 7.48 µM
  TGI: 56.3 µM
[3]
  GI50: 0.738 µM
  TGI: > 100 µM
[10]
  GI50: 52 µM
  TGI: > 100 µM
[4]
  GI50: 4.22 µM
  TGI: 26.4 µM
[5]
  GI50: 2.43 µM
  TGI: 19.3 µM
[6]
  GI50: 4.43 µM
  TGI: > 100 µM
[8]
  GI50: 11.1 µM
  TGI: > 100 µM

## C/C=C(/C)c1cnc(CC(C)C)c(=O)[nH]1
[1]
  TGI: > 100 µM
[9]
  TGI: > 100 µM
[2]
  TGI: > 100 µM
[3]
  TGI: > 100 µM
[10]
  TGI: > 100 µM
[4]
  TGI: > 100 µM
[5]
  TGI: > 100 µM
[6]
  TGI: > 100 µM
[8]
  TGI: > 100 µM

## Clc1ccc2c(c1)[nH]c1c2nc2sccn21
[2]
  TGI: > 100 µM
[3]
  TGI: > 100 µM
[4]
  TGI: > 100 µM
[5]
  TGI: > 100 µM
[6]
  TGI: > 100 µM
[7]
  TGI: > 100 µM
[8]
  TGI: > 100 µM

## COc1c(Sc2ccccc2)cc(Sc2ccccc2)c2cccnc12
[2]
  TGI: > 100 µM
[3]
  TGI: > 100 µM
[4]
  TGI: 41.1 µM
[5]
  TGI: 71.1 µM
[6]
  TGI: > 100 µM
[7]
  TGI: 44.1 µM
[8]
  TGI: 61.2 µM

## CS(=O)(=O)NNS(=O)(=O)c1ccc(Cl)cc1
[2]
  TGI: > 100 µM
[3]
  TGI: > 100 µM
[4]
  TGI: > 100 µM
[5]
  TGI: > 100 µM
[6]
  TGI: > 100 µM
[7]
  TGI: > 100 µM
[8]
  TGI: > 100 µM
